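Cells were grown in 96-well plates and exposed to each compound for 48 hours at five concentrations; endpoints were interpolated linearly between bracketing concentrations, or set to the highest concentration if not reached. The concentration for 50% growth inhibition is given as GI50. TGI: total growth inhibition.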
Key:
Experiment in all cases: inhibition of tumour cell growth, NCI panel, 48 h
K-562 leukemia = system: K-562 leukemia
MALME-3M melanoma = system: MALME-3M melanoma
RXF 393 renal = system: RXF 393 renal
MCF7 breast = system: MCF7 breast
HCC-2998 colon = system: HCC-2998 colon
IGROV1 ovarian = system: IGROV1 ovarian
SK-MEL-2 melanoma = system: SK-MEL-2 melanoma
A549 NSCLC = system: A549 NSCLC
HOP-62 NSCLC = system: HOP-62 NSCLC
OVCAR-4 ovarian = system: OVCAR-4 ovarian
NCI-H226 lung = system: NCI-H226 lung
SN12C renal = system: SN12C renal
DU-145 prostate = system: DU-145 prostate
NCI-H522 lung = system: NCI-H522 lung
UACC-62 melanoma = system: UACC-62 melanoma
M14 melanoma = system: M14 melanoma
OVCAR-5 ovarian = system: OVCAR-5 ovarian
MDA-MB-231 breast = system: MDA-MB-231 breast
U251 CNS = system: U251 CNS
BT-549 breast = system: BT-549 breast
SNB-19 CNS = system: SNB-19 CNS
SF-295 CNS = system: SF-295 CNS
ACHN renal = system: ACHN renal
TK-10 renal = system: TK-10 renal
786-0 renal = system: 786-0 renal
KM12 colon = system: KM12 colon
SK-OV-3 ovarian = system: SK-OV-3 ovarian
SNB-75 CNS = system: SNB-75 CNS
NCI/ADR-RES ovarian = system: NCI/ADR-RES ovarian
HL-60(TB) leukemia = system: HL-60(TB) leukemia
SK-MEL-28 melanoma = system: SK-MEL-28 melanoma
CCRF-CEM leukemia = system: CCRF-CEM leukemia
OVCAR-3 ovarian = system: OVCAR-3 ovarian
A498 renal = system: A498 renal
RPMI-8226 leukemia = system: RPMI-8226 leukemia
COLO 205 colon = system: COLO 205 colon
LOX IMVI melanoma = system: LOX IMVI melanoma
SK-MEL-5 melanoma = system: SK-MEL-5 melanoma
MOLT-4 leukemia = system: MOLT-4 leukemia
HCT-15 colon = system: HCT-15 colon
SF-268 CNS = system: SF-268 CNS
MDA-MB-435 = system: MDA-MB-435
PC-3 prostate = system: PC-3 prostate
NCI-H460 lung = system: NCI-H460 lung
UACC-257 melanoma = system: UACC-257 melanoma
EKVX NSCLC = system: EKVX NSCLC
NCI-H23 lung = system: NCI-H23 lung
HS 578T breast = system: HS 578T breast
UO-31 renal = system: UO-31 renal
HCT-116 colon = system: HCT-116 colon
HT29 colon = system: HT29 colon
T-47D breast = system: T-47D breast
CAKI-1 renal = system: CAKI-1 renal
SW-620 colon = system: SW-620 colon
HOP-92 NSCLC = system: HOP-92 NSCLC
OVCAR-8 ovarian = system: OVCAR-8 ovarian

NC(N)=NN=C(c1ccccc1)c1ccccc1
GI50 (K-562 leukemia): 4.35 µM | TGI (K-562 leukemia): 27.5 µM | GI50 (MALME-3M melanoma): 2.99 µM | TGI (MALME-3M melanoma): 19.1 µM | GI50 (RXF 393 renal): 1.71 µM | TGI (RXF 393 renal): 3.93 µM | GI50 (MCF7 breast): 2.28 µM | TGI (MCF7 breast): 41.7 µM | GI50 (HCC-2998 colon): 4.49 µM | TGI (HCC-2998 colon): 20.4 µM | GI50 (IGROV1 ovarian): 4.32 µM | TGI (IGROV1 ovarian): 87.6 µM | GI50 (SK-MEL-2 melanoma): 2.16 µM | TGI (SK-MEL-2 melanoma): 13.9 µM | GI50 (A549 NSCLC): 4.03 µM | TGI (A549 NSCLC): > 100 µM | GI50 (HOP-62 NSCLC): 6.75 µM | TGI (HOP-62 NSCLC): > 100 µM | GI50 (OVCAR-4 ovarian): 5.16 µM | TGI (OVCAR-4 ovarian): 93.6 µM | GI50 (NCI-H226 lung): 14.1 µM | TGI (NCI-H226 lung): > 100 µM | GI50 (SN12C renal): 6.25 µM | TGI (SN12C renal): > 100 µM | GI50 (DU-145 prostate): 3.45 µM | TGI (DU-145 prostate): > 100 µM | GI50 (NCI-H522 lung): 2.38 µM | TGI (NCI-H522 lung): 8.51 µM | GI50 (UACC-62 melanoma): 4.64 µM | TGI (UACC-62 melanoma): 42.5 µM | GI50 (M14 melanoma): 2.64 µM | TGI (M14 melanoma): 9.3 µM | GI50 (OVCAR-5 ovarian): 7.94 µM | TGI (OVCAR-5 ovarian): > 100 µM | GI50 (MDA-MB-231 breast): 4.3 µM | TGI (MDA-MB-231 breast): 40.8 µM | GI50 (U251 CNS): 3.5 µM | TGI (U251 CNS): 24.6 µM | GI50 (BT-549 breast): 5.51 µM | TGI (BT-549 breast): 65.3 µM | GI50 (SNB-19 CNS): 7.69 µM | TGI (SNB-19 CNS): > 100 µM | GI50 (SF-295 CNS): 2.9 µM | TGI (SF-295 CNS): 16 µM | GI50 (ACHN renal): 4.13 µM | TGI (ACHN renal): > 100 µM | GI50 (TK-10 renal): 5.75 µM | TGI (TK-10 renal): > 100 µM | GI50 (786-0 renal): 4.71 µM | TGI (786-0 renal): 36.2 µM | GI50 (KM12 colon): 2.53 µM | TGI (KM12 colon): 20 µM | GI50 (SK-OV-3 ovarian): 3.31 µM | TGI (SK-OV-3 ovarian): 23.7 µM | GI50 (SNB-75 CNS): 3.49 µM | TGI (SNB-75 CNS): > 100 µM | GI50 (NCI/ADR-RES ovarian): 19.7 µM | TGI (NCI/ADR-RES ovarian): > 100 µM | GI50 (HL-60(TB) leukemia): 3.11 µM | TGI (HL-60(TB) leukemia): 12.1 µM | GI50 (SK-MEL-28 melanoma): 5.82 µM | TGI (SK-MEL-28 melanoma): 36.9 µM | GI50 (CCRF-CEM leukemia): 4.38 µM | TGI (CCRF-CEM leukemia): > 100 µM | GI50 (OVCAR-3 ovarian): 2.15 µM | TGI (OVCAR-3 ovarian): 5.49 µM | GI50 (A498 renal): 3.49 µM | TGI (A498 renal): > 100 µM | GI50 (RPMI-8226 leukemia): 3.97 µM | TGI (RPMI-8226 leukemia): 17.8 µM | GI50 (COLO 205 colon): 1.91 µM | TGI (COLO 205 colon): 4.19 µM | GI50 (LOX IMVI melanoma): 6.09 µM | TGI (LOX IMVI melanoma): 51.8 µM | GI50 (SK-MEL-5 melanoma): 3.06 µM | TGI (SK-MEL-5 melanoma): 14.7 µM | GI50 (MOLT-4 leukemia): 8.82 µM | TGI (MOLT-4 leukemia): 91.7 µM | GI50 (HCT-15 colon): 3.25 µM | TGI (HCT-15 colon): > 100 µM | GI50 (SF-268 CNS): 6.8 µM | TGI (SF-268 CNS): > 100 µM | GI50 (MDA-MB-435): 0.612 µM | TGI (MDA-MB-435): 2.94 µM | GI50 (PC-3 prostate): 2.95 µM | TGI (PC-3 prostate): > 100 µM | GI50 (NCI-H460 lung): 3.51 µM | TGI (NCI-H460 lung): 17.3 µM | GI50 (UACC-257 melanoma): 9.79 µM | TGI (UACC-257 melanoma): 41.9 µM | GI50 (EKVX NSCLC): 6.82 µM | TGI (EKVX NSCLC): > 100 µM | GI50 (NCI-H23 lung): 6.04 µM | TGI (NCI-H23 lung): > 100 µM | GI50 (HS 578T breast): 1.78 µM | TGI (HS 578T breast): 7.91 µM | GI50 (UO-31 renal): 4.48 µM | TGI (UO-31 renal): > 100 µM | GI50 (HCT-116 colon): 3.53 µM | TGI (HCT-116 colon): 89.7 µM | GI50 (HT29 colon): 2.89 µM | TGI (HT29 colon): 17.8 µM | GI50 (T-47D breast): 6.65 µM | TGI (T-47D breast): > 100 µM | GI50 (CAKI-1 renal): 3.77 µM | TGI (CAKI-1 renal): > 100 µM | GI50 (SW-620 colon): 3.63 µM | TGI (SW-620 colon): 41.5 µM | GI50 (HOP-92 NSCLC): 2.14 µM | TGI (HOP-92 NSCLC): 55.1 µM | GI50 (OVCAR-8 ovarian): 3.87 µM | TGI (OVCAR-8 ovarian): 39.8 µM
